Marks after values point to notes of the source that are not given here.
Test system: male rats
Test: 28-day repeated dose study, plasma metabolite profiling (GC-MS, LC-MS), male rats
Type: in vivo, rat
Description: Drinking water was also offered ad libitum.

CCCCOCCO [2-Butoxyethanol]
18-Hydroxy-11-deoxycorticosterone, plasma, treatment ratio versus control (day 7): 0.18*
Alanine, plasma, treatment ratio versus control (day 7): 0.83*
Arachidonic acid (C20:cis[5,8,11,14]4), plasma, treatment ratio versus control (day 7): 0.86*
Coenzyme Q9, plasma, treatment ratio versus control (day 7): 0.83*
Creatinine, plasma, treatment ratio versus control (day 7): 1.03
DAG (C18:1, C18:2), plasma, treatment ratio versus control (day 7): 0.99
Fructose-6-phosphate, plasma, treatment ratio versus control (day 7): 0.84
Galactose, lipid fraction, plasma, treatment ratio versus control (day 7): 0.8*
Glucosamine, plasma, treatment ratio versus control (day 7): 1
Glucose, plasma, treatment ratio versus control (day 7): 0.81*
Glycerol, polar fraction, plasma, treatment ratio versus control (day 7): 0.86*
Heneicosanoic acid (C21:0), plasma, treatment ratio versus control (day 7): 0.88
Lactate, plasma, treatment ratio versus control (day 7): 0.93*
Linolenic acid (C18:cis[9,12,15]3), plasma, treatment ratio versus control (day 7): 1.01
Lysine, plasma, treatment ratio versus control (day 7): 0.81*
Malate, plasma, treatment ratio versus control (day 7): 0.81*
Oleic acid (C18:cis[9]1), plasma, treatment ratio versus control (day 7): 0.98
Palmitoleic acid (C16:cis[9]1), plasma, treatment ratio versus control (day 7): 0.94
Phenylalanine, plasma, treatment ratio versus control (day 7): 0.87*
Phosphate (inorganic and organic phosphates), plasma, treatment ratio versus control (day 7): 1.05
Pyruvate, plasma, treatment ratio versus control (day 7): 1.1
Spermidine, plasma, treatment ratio versus control (day 7): 0.67*
TAG (C16:0,C16:1), plasma, treatment ratio versus control (day 7): 1.16
Uracil, plasma, treatment ratio versus control (day 7): 0.77*
myo-Inositol, plasma, treatment ratio versus control (day 7): 0.88
trans-4-Hydroxyproline, plasma, treatment ratio versus control (day 7): 1.03
18-Hydroxy-11-deoxycorticosterone, plasma, treatment ratio versus control (day 14): 0.44*
Alanine, plasma, treatment ratio versus control (day 14): 0.93
Arachidonic acid (C20:cis[5,8,11,14]4), plasma, treatment ratio versus control (day 14): 0.84
Coenzyme Q9, plasma, treatment ratio versus control (day 14): 0.5*
Creatinine, plasma, treatment ratio versus control (day 14): 1.34*
DAG (C18:1, C18:2), plasma, treatment ratio versus control (day 14): 0.69*
Fructose-6-phosphate, plasma, treatment ratio versus control (day 14): 1.11
Galactose, lipid fraction, plasma, treatment ratio versus control (day 14): 0.86
Glucosamine, plasma, treatment ratio versus control (day 14): 0.88
Glucose, plasma, treatment ratio versus control (day 14): 0.73*
Glycerol, polar fraction, plasma, treatment ratio versus control (day 14): 0.95
Heneicosanoic acid (C21:0), plasma, treatment ratio versus control (day 14): 0.86*
Lactate, plasma, treatment ratio versus control (day 14): 0.86
Linolenic acid (C18:cis[9,12,15]3), plasma, treatment ratio versus control (day 14): 0.9*
Lysine, plasma, treatment ratio versus control (day 14): 1
Malate, plasma, treatment ratio versus control (day 14): 0.79*
Oleic acid (C18:cis[9]1), plasma, treatment ratio versus control (day 14): 0.8*
Palmitoleic acid (C16:cis[9]1), plasma, treatment ratio versus control (day 14): 0.77
Phenylalanine, plasma, treatment ratio versus control (day 14): 0.94*
Phosphate (inorganic and organic phosphates), plasma, treatment ratio versus control (day 14): 1.03
Pyruvate, plasma, treatment ratio versus control (day 14): 0.78
Spermidine, plasma, treatment ratio versus control (day 14): 0.68*
TAG (C16:0,C16:1), plasma, treatment ratio versus control (day 14): 0.66*
Uracil, plasma, treatment ratio versus control (day 14): 0.9
myo-Inositol, plasma, treatment ratio versus control (day 14): 0.82*
trans-4-Hydroxyproline, plasma, treatment ratio versus control (day 14): 1.21*
18-Hydroxy-11-deoxycorticosterone, plasma, treatment ratio versus control (day 28): 0.68*
Alanine, plasma, treatment ratio versus control (day 28): 0.91*
Arachidonic acid (C20:cis[5,8,11,14]4), plasma, treatment ratio versus control (day 28): 0.84
Coenzyme Q9, plasma, treatment ratio versus control (day 28): 0.83
Creatinine, plasma, treatment ratio versus control (day 28): 1.19*
DAG (C18:1, C18:2), plasma, treatment ratio versus control (day 28): 0.78
Fructose-6-phosphate, plasma, treatment ratio versus control (day 28): 0.61*
Galactose, lipid fraction, plasma, treatment ratio versus control (day 28): 0.71*
Glucosamine, plasma, treatment ratio versus control (day 28): 1.3*
Glucose, plasma, treatment ratio versus control (day 28): 0.93*
Glycerol, polar fraction, plasma, treatment ratio versus control (day 28): 0.87*
Heneicosanoic acid (C21:0), plasma, treatment ratio versus control (day 28): 0.96
Lactate, plasma, treatment ratio versus control (day 28): 0.72*
Linolenic acid (C18:cis[9,12,15]3), plasma, treatment ratio versus control (day 28): 0.99
Lysine, plasma, treatment ratio versus control (day 28): 0.86*
Malate, plasma, treatment ratio versus control (day 28): 0.7*
Oleic acid (C18:cis[9]1), plasma, treatment ratio versus control (day 28): 0.91
Palmitoleic acid (C16:cis[9]1), plasma, treatment ratio versus control (day 28): 0.77
Phenylalanine, plasma, treatment ratio versus control (day 28): 0.95*
Phosphate (inorganic and organic phosphates), plasma, treatment ratio versus control (day 28): 1.02*
Pyruvate, plasma, treatment ratio versus control (day 28): 0.72*
Spermidine, plasma, treatment ratio versus control (day 28): 0.77*
TAG (C16:0,C16:1), plasma, treatment ratio versus control (day 28): 1.06
Uracil, plasma, treatment ratio versus control (day 28): 0.71*
myo-Inositol, plasma, treatment ratio versus control (day 28): 0.93*
trans-4-Hydroxyproline, plasma, treatment ratio versus control (day 28): 1.15

COCCO [2-Methoxyethanol]
3-Hydroxybutyrate, plasma, treatment ratio versus control (day 7): 0.45*
3-O-Methylsphingosine (d18:1), plasma, treatment ratio versus control (day 7): 0.53*
5-Oxoproline, plasma, treatment ratio versus control (day 7): 0.76*
Campesterol, plasma, treatment ratio versus control (day 7): 0.58*
Ceramide (d18:1,C24:0), plasma, treatment ratio versus control (day 7): 0.75*
Ceramide (d18:1,C24:1), plasma, treatment ratio versus control (day 7): 0.82
Cholesterol, plasma, treatment ratio versus control (day 7): 0.58*
Coenzyme Q9, plasma, treatment ratio versus control (day 7): 0.57*
Coenzyme Q10, plasma, treatment ratio versus control (day 7): 0.7*
Dodecanol, plasma, treatment ratio versus control (day 7): 0.8
Glutamine, plasma, treatment ratio versus control (day 7): 0.68*
Histidine, plasma, treatment ratio versus control (day 7): 1.13
Isopalmitic acid (C16:0), plasma, treatment ratio versus control (day 7): 1.03
Lignoceric acid (C24:0), plasma, treatment ratio versus control (day 7): 0.61*
Linoleic acid (C18:cis[9,12]2), plasma, treatment ratio versus control (day 7): 1.07
Lysine, plasma, treatment ratio versus control (day 7): 1.22*
Myristic acid (C14:0), plasma, treatment ratio versus control (day 7): 0.87
Palmitic acid (C16:0), plasma, treatment ratio versus control (day 7): 0.92
Palmitoleic acid (C16:cis[9]1), plasma, treatment ratio versus control (day 7): 0.71*
Sphingomyelin (d18:1,C16:0), plasma, treatment ratio versus control (day 7): 0.84*
Sphingomyelin (d18:1,C24:0), plasma, treatment ratio versus control (day 7): 0.68*
Stearic acid (C18:0), plasma, treatment ratio versus control (day 7): 0.8*
Threonine, plasma, treatment ratio versus control (day 7): 1.72*
alpha-Tocopherol, plasma, treatment ratio versus control (day 7): 0.78
erythro-Sphingosine, plasma, treatment ratio versus control (day 7): 0.57*
3-Hydroxybutyrate, plasma, treatment ratio versus control (day 14): 0.24*
3-O-Methylsphingosine (d18:1), plasma, treatment ratio versus control (day 14): 0.67*
5-Oxoproline, plasma, treatment ratio versus control (day 14): 0.67*
Ceramide (d18:1,C24:0), plasma, treatment ratio versus control (day 14): 0.7*
Ceramide (d18:1,C24:1), plasma, treatment ratio versus control (day 14): 0.62*
Cholesterol, plasma, treatment ratio versus control (day 14): 0.61*
Coenzyme Q9, plasma, treatment ratio versus control (day 14): 0.58*
Coenzyme Q10, plasma, treatment ratio versus control (day 14): 0.49*
Dodecanol, plasma, treatment ratio versus control (day 14): 0.77*
Glutamine, plasma, treatment ratio versus control (day 14): 0.71
Histidine, plasma, treatment ratio versus control (day 14): 1.4*
Isopalmitic acid (C16:0), plasma, treatment ratio versus control (day 14): 0.43*
Lignoceric acid (C24:0), plasma, treatment ratio versus control (day 14): 0.46*
Linoleic acid (C18:cis[9,12]2), plasma, treatment ratio versus control (day 14): 0.77*
Myristic acid (C14:0), plasma, treatment ratio versus control (day 14): 0.57*
Palmitic acid (C16:0), plasma, treatment ratio versus control (day 14): 0.75*
Palmitoleic acid (C16:cis[9]1), plasma, treatment ratio versus control (day 14): 0.39*
Sphingomyelin (d18:1,C16:0), plasma, treatment ratio versus control (day 14): 0.88*
Sphingomyelin (d18:1,C24:0), plasma, treatment ratio versus control (day 14): 0.56*
Stearic acid (C18:0), plasma, treatment ratio versus control (day 14): 0.84*
Threonine, plasma, treatment ratio versus control (day 14): 2.93*
alpha-Tocopherol, plasma, treatment ratio versus control (day 14): 0.76*
erythro-Sphingosine, plasma, treatment ratio versus control (day 14): 0.67*

Source: US20140342379A1, “Means and Methods for Assessing Gonadal Toxicity” (BASF SE, priority 2011, published 2014)
